Results: patent US20140341916A1, “THERAPEUTIC COMBINATIONS AND METHODS OF TREATING MELANOMA” (Genentech, Inc., priority 2011, published 2014)

Experiments:
[1] = test system: A2058 melanoma xenograft; assay: In vivo efficacy, subcutaneous melanoma xenograft, tumor volume / % TGI; set-up: species or system mice; details: for % TGI Single Agent BRAFi vs. control: A2058
Description: Next, efficacy studies were performed using the melanoma cells lines in the xenografts mouse models described above. All studies were conducted in accordance with the Guide for the Care and Use of Laboratory Animals (Ref: Institute of Laboratory Animal Resources (NIH publication no. 85-23), Washington, D.C.: National Academies Press; 1996). 10- to 14-week-old female CRL Nu/Nu or NCr nude mice from Charles River Laboratories were inoculated subcutaneously in the dorsal right flank with either 5×10^6 UACC-257X2.2 cells in HBSS with Matrigel or 5×10^6 A2058 cells in HBSS with Matrigel. When tumor volumes reached approximately 200 mm^3 (day 0), animals were randomized into groups of 10 each.
For single agent efficacy studies, the anti-ETBR ADC candidate Hu5E9v1-ADC was administered as a single intravenous (IV) injection on day 0 at 1 mpk, 3 mpk, or 6 mpk (mg/kg). A control ADC antibody and vehicle control were also administered. Average tumor volumes with standard deviations were determined from 10 animals per group. Tumor volumes were measured twice per week until study end.
The average tumor volumes were determined from 10 animals per group. Tumor volumes were measured twice per week until study end. Tumor volumes were measured in two dimensions (length and width) using UltraCal IV calipers (Model 54 10 111, Fred V. Fowler Company; Newton, Mass.). The following formula was used with Excel, version 12.2.8 (Microsoft; Redmond, Wash.) to calculate tumor volume: Tumor Volume (mm3)=[…]
To analyze the repeated measurement of tumor volumes from the same animals over time, a mixed-modeling Linear Mixed Effects (LME) approach was used (Pinheiro et al. 2009). This approach can address both repeated measurements and a modest drop-out rate due to non-treatment-related termination of animals prior to study end. Cubic regression splines were used to fit a non-linear profile to the time courses of log 2 tumor volume at each dose level. These non-linear profiles were then related to dose within the mixed model. Tumor growth inhibition (TGI) as a percentage of vehicle was calculated as percent area under the fitted curve (AUC) per day in relation to the vehicle, using the following formula:
Using this formula, a TGI value of 100% indicates tumor stasis, of >1% but <100% indicates tumor growth delay, and of >100% indicates tumor regression. To get uncertainty intervals (UIs) for % TGI, the fitted curve and the fitted covariance matrix were used to generate a random sample as an approximation to the distribution of % TGI. The random sample is composed of 1000 simulated realizations of the fitted-mixed model, where the % TGI has been recalculated for each realization. Here, in the reported UI is the value for which 95% of the time, the recalculated values of % TGI will fall in this region given the fitted model. The 2.5 and 97.5 percentiles of the simulated distribution were used as the […] UIs.
Tumors were grown to an average size of approximately 200 mm^3, whereupon animals were randomized into groups of 10 each. […] A single dose of Hu5E9v1-ADC at either 3 mpk or 6 mpk or control, a histidine buffer #8, was administered intraveneously into the tail vein on day 1 (after three doses of RG7204).
To do this, the in vivo efficacy for various combinations of Hu5E9v1-ADC and MEKi-623 and/or MEKi-973 were evaluated against A2058 and SK-MEL-23 and IPC-298 melanoma in vivo models, performed as described above in Example 4. An appropriate methylcellulose tween vehicle control (0.5% methylcellulose, 0.2% Tween-80 (MCT) or MEK inhibitor at doses of 1 mpk, 3 mpk or 7.5 mpk were administered orally once a day×21 days beginning on study Day 0. A single 3 mpk or 6 mpk dose of Hu5E9v1-ADC or control, a histidine buffer #8, was administered intraveneously (after two doses of a MEK inhibitor) via tail vein at study Day 1.

[2] = test system: ETBR total protein; assay: ETBR total protein in melanoma cell lines, Western blot; type: cell-based, human; details: 24 h
Description: Melanoma cell lines UACC-257X2.2, A2058, COLO 829, IPC-298 (ATCC) were treated with a BRAF inhibitor drug (“BRAFi”), specifically RG7204 at varying concentrations by adding the appropriate drug volume to cells in culture for 24 h on four-well dishes.
To test whether the increase in ETBR transcripts due to BRAFi treatment also results in any changes in ETBR total protein levels, Western blot experiments were performed on the same cell lines treated with BRAFi RG7204 as described above. For Western blotting, the following reagents were used: for detection of proteins: an anti-ETBR in-house generated monoclonal antibody 1H1.8.5, anti-Phospho-p44/42 MAPK (Erk1/2) (Thr202/Tyr204) antibody (9101, Cell Signaling Technology), anti-p44/42 MAPK (Erk1/2) antibody (9102, Cell Signaling Technology) and as controls, a rabbit polyclonal anti-GAPDH (glyceraldehyde-3-phosphate dehydrogenase) antibody (PA1-987; Affinity Bioreagents) and mouse monoclonal anti-β-Tubulin antibody (556321, BD Pharmingen). The results for UACC-257X2.2 are shown in FIG. 4B, the results for A2058 are shown in FIG. 8B, the results for COLO 829 are shown in FIG. 6B and the results for IPC-298 are shown in FIG. 10.
Melanoma cell lines A2058, COLO 829, SK23-MEL and IPC-298 (ATCC) were treated with a MEK inhibitor drug (“MEKi-973” or “MEKi-623”), at varying concentrations (0 μM, 0.01 μM, 0.1 μM or 1 μM) by adding the appropriate drug volume to cells in culture for 24 h on four-well dishes.
To test whether the increase in ETBR transcripts due to MEKi treatment also results in any changes in ETBR total protein levels, Western blot experiments were performed on cell lines COLO829 (BRAF^V600E), A2058 (BRAF^V600E), SK23-MEL (BRAF^WT/RAS^WT), or IPC-298 (BRAF^WT/RAS^[…]) which were treated with MEKi-973 as described above. For Western blotting, the following reagents were used: for detection of proteins: an anti-ETBR in-house generated monoclonal antibody 1H1.8.5, anti-Phospho-p44/42 MAPK (Erk1/2) (Thr202/Tyr204) antibody (9101, Cell Signaling Technology), anti-p44/42 MAPK (Erk1/2) antibody (9102, Cell Signaling Technology) and as controls, a rabbit polyclonal anti-GAPDH (glyceraldehyde-3-phosphate dehydrogenase) antibody (PA1-987; Affinity Bioreagents) and mouse monoclonal anti-β-Tubulin antibody (556321, BD Pharmingen). The results for A2058 are shown in FIG. 15A treated with MEKi-623 and 15B treated with MEKi-973, the results for COLO 829 are shown in FIG. 12A treated with MEKi-623 and 12B treated with MEKi-973, the results for SK23-MEL are shown in FIG. 19A treated with MEKi-623 and 19B treated with MEKi-973, and the results for IPC-298 are shown in FIG. 22A treated with MEKi-623 and 22B treated with MEKi-973.

SMILES: CCCS(=O)(=O)Nc1ccc(F)c(C(=O)c2c[nH]c3ncc(-c4ccc(Cl)cc4)cc23)c1F [RG7204, propane-1-sulfonic acid {3-[5-(4-chlorophenyl)-1H-pyrrolo[2,3-b]pyridine-3-carbonyl]-2,4-difluoro-phenyl}-amide]
- single agent efficacy ([1]; 10 mg/kg RG7204 alone, orally twice a day 21 days): did not show single agent efficacy
- % TGI Single Agent BRAFi vs. control ([1]; BRAFi Qdx21 10 mg/kg): 13%
- % TGI Single Agent BRAFi vs. control ([1]; BRAFi Qdx21 30 mg/kg): 38%
- ETBR total protein level vs untreated control cells ([2]; A2058 cells (BRAF V600E)): appears to increase the ETBR total protein levels
- ETBR total protein level vs untreated control cells ([2]; COLO 829 cells (BRAF V600E)): appears to increase the ETBR total protein levels
- ETBR total protein level vs untreated control cells ([2]; IPC-298 cells (BRAF wild-type, RAS mutant)): does not appear to increase ETBR levels
- ETBR total protein level vs untreated control cells ([2]; UACC-257X2.2 cells): appears to increase the ETBR total protein levels
